Earlier results as cited in patent publication US20210177743A1, “Self-Assembling Multi-Domain Peptide Based Hydrogels” (New Jersey Institute of Technology, priority 2018, published 2021).

System: hepatocytes with low LDL receptors due to PCSK9

## TVFTSWEEYLDWV [Pep2-8]
  LDL receptors on the cell surface: restore the receptors to the cell surface
